Experimental data from patent publication US20110052570A1, “METHOD TO PROGNOSE RESPONSE TO ANTI-EGFR THERAPEUTICS” (CHILDREN'S MEDICAL CENTER CORPORATION, priority 2005, published 2011).
Entries after “also recorded” stand apart in the source; their conditions may differ. Blank lines part the entries; values can stand above or below the compound they belong to.

Assays:
EGFR = target: T1, EGFR (Mus musculus, UniProt Q01279); assay: EGFR phosphorylation by immunoprecipitation / western blotting in endothelial cells; assay type: cell-based; details: for ligand-induced EGFR phosphorylation / activation: serum starved A375SM tumor EC, ligand 100 ng/ml
T1 construct: endogenous in cells; host or cells: mouse tumour EC isolated from A375SM melanoma, MDA-MB-231 breast carcinoma and liposarcoma xenografts; mouse skin EC as control
Description: Immunoprecipitation (IP) and western blotting (WB). […] Cells were also treated with the EGFR kinase inhibitor, AG1478 (Calbiochem, San Diego, Calif.), prepared in DMSO, fifteen minutes prior to growth factor stimulation. Immunoprecipitation (IP) and western blotting (WB) were performed as previously described (16). […] Receptor phosphorylation was detected using anti-phosphotyrosine antibody (mAb 4G10; Upstate, Lake Placid, N.Y.). […] In addition antibodies to GAPDH (Chemicon, Temecula, Calif.), (β-Actin (Sigma-Aldrich, St Louis, Mo.), phospho-Erk1-2 (New England Biolab, Beverly Mass.), and Erk1 (Santa Cruz Biotechnology) were purchased.

[1] = tested on: A375SM tumor EC (melanoma EC); assay: MTT cell proliferation assay, tumor EC; assay type: cell-based, mouse
Description: (§1) Cell proliferation. Cells (4×103) were plated in triplicates into 96 well plates and allowed to adhere overnight. The cells were then switched to serum free media containing growth factors and/or AG1478 at indicated concentrations. Cells were cultured for 72 hr and cell proliferation was determined by addition of 0.42 mg/ml of 3-(4,5-dimethylthiazol-2-yl)-2,5-diphenyltetrazolium bromide (MTT) reagent (Sigma-Aldrich) for 4 hr prior to harvesting. Media was removed and cells were solubilized in DMSO and absorbance was measured at 570 nm. The averages of the triplicates were calculated and cell proliferation was determined as the percentage of absorbance of treated cells to the untreated cells. All the experiments were at least performed twice.

[2] = tested on: A375SM melanoma xenograft; assay: A375SM melanoma xenograft model in nude mice; assay type: in vivo, mouse; details: EGFR-negative A375SM xenografts in mice, daily treatment, 4 weeks
Description: A375SM melanoma tumor cells were injected subcutaneously into nude mice. When the tumors reached an average volume of 200 mm^3 the mice were randomized into a control and Iressa treatment groups. The mice were treated daily p.o. with gefitinib (150 mg/kg) or with the vehicle. Tumor volumes were measured every 4 days.

Erk1/2 = Erk1/2 (MAPK) phosphorylation by western blotting in endothelial cells; assay type: cell-based, mouse
Description: (§2) Immunoprecipitation (IP) and western blotting (WB). […] Cells were also treated with the EGFR kinase inhibitor, AG1478 (Calbiochem, San Diego, Calif.), prepared in DMSO, fifteen minutes prior to growth factor stimulation. Immunoprecipitation (IP) and western blotting (WB) were performed as previously described (16). The antibodies used for IP and WB of ErbB1-4 were: SC-03, SC-284, SC-285, and SC-283 respectively (Santa Cruz Biotechnology, Santa Cruz, Calif.). Receptor phosphorylation was detected using anti-phosphotyrosine antibody (mAb 4G10; Upstate, Lake Placid, N.Y.). Analysis of phosphorylated—EGFR on lysates was performed using phospho-1068 EGFR (Cell Signaling Technologies, Beverly Mass.). In addition antibodies to GAPDH (Chemicon, Temecula, Calif.), (β-Actin (Sigma-Aldrich, St Louis, Mo.), phospho-Erk1-2 (New England Biolab, Beverly Mass.), and Erk1 (Santa Cruz Biotechnology) were purchased.

skin EC = assay: MTT cell proliferation assay, skin EC; assay type: cell-based, mouse; details: increasing EGF
Description: as §1

ErbB2 = ErbB2 phosphorylation by immunoprecipitation / western blotting in endothelial cells; assay type: cell-based, mouse
Description: as §2

[3] = target: ErbB3 on mouse skin endothelial cells (skin EC) (mouse) (UniProt Q61526); assay: cell-based or functional assay

Compound: COc1cc2ncnc(Nc3cccc(Cl)c3)c2cc1OC [AG1478, 4-(3-Chloroanillino)-6,7-dimethoxyquinazoline, reference compound]
- effect on EGF-induced phosphorylation of EGFR (EGFR; skin EC, inhibitor pretreatment, then EGF 100 ng/ml): had no effect on skin EC
- inhibition of EGF-induced phosphorylation of EGFR (EGFR; tumor EC (A375SM melanoma EC), inhibitor pretreatment, then EGF 100 ng/ml): inhibited EGF-induced phosphorylation of EGFR in tumor EC in a dose-dependent manner; also recorded: inhibits EGFR activation on melanoma EC
- inhibition of EGF-induced increase in tumor EC cell proliferation ([1]; inhibitor at 1 μM, increasing EGF, MTT 72 hr): completely inhibit
- inhibition of EGF-induced tumor EC proliferation ([1]; tumor (melanoma) EC, concentration not stated / dose dependent): completely inhibits EGF dependent proliferation

Compound: COc1cc2ncnc(Nc3ccc(F)c(Cl)c3)c2cc1OCCCN1CCOCC1 [Iressa, Gefitinib]
- effect on tumor growth (in words) [2]: inhibits EGFR negative A375SM melanoma xenograph growth
- effect on tumor growth (in words) ([2]; listed as geftinib): effective against EGFR-negative tumors in mice

Compound: EGF: epidermal growth factor, ligand that binds only to EGFR
- increase in cell proliferation ([1]; tumor EC, 20 ng/ml of EGF, MTT): 2.5 fold
- effect on cell proliferation (in words) ([1]; tumor EC, increasing EGF, MTT): dose-dependent increase in cell proliferation
- phospho-Erk1/2 levels in the presence of EGF (Erk1/2; A375SM tumor EC): increase in phospho-Erk1/2 levels
- MAPK activation by EGF (Erk1/2; MDA-MB-231 breast carcinoma EC): subsequent MAPK activation
- MAPK activation by EGF (Erk1/2; liposarcoma EC): subsequent MAPK activation
- effect on cell proliferation (in words) (skin EC): did not respond to EGF
- EGF-induced ErbB2 phosphorylation (p-ErbB2) (ErbB2; A375SM tumor EC): increased ErbB2 phosphorylation (p-ErbB2) in tumor EC
- ErbB2 activation in response to EGF (ErbB2; MDA-MB-231 breast carcinoma EC): ErbB2 was also activated
- ErbB2 activation in response to EGF (ErbB2; liposarcoma EC): ErbB2 was also activated

Further lines, results first:

- ligand-induced EGFR phosphorylation / activation (EGFR): promoted EGFR activation in tumor EC
Compound: BTC: betacellulin, binds EGFR and ErbB4

- ligand-induced EGFR phosphorylation / activation (EGFR): promoted EGFR activation in tumor EC
Compound: HB-EGF: Heparin binding-EGF like growth factor, binds EGFR and ErbB4

- growth inhibition (MTT assay) of skin EC at 5 ng/ml (0.2 nM) NRG1β [3]: 25%
Compound: NRG1β extra-cellular domain (R&D Systems) (ligand)

- ligand-induced EGFR phosphorylation / activation (EGFR): promoted EGFR activation in tumor EC
Compound: TGFα: transforming growth factor-alpha, EGFR ligand
